Laboratory results from US7534894B2, “Biphenyloxy-acids” (Wyeth, priority 2003, dated 2009).

Columns and labels:
[1] = biological target: T1, recombinant human plasminogen activator inhibitor-1 (PAI-1) (Homo sapiens, UniProt P05121); assay: Primary Screen for the PAI-1 Inhibition (residual tPA activity, chromogenic substrate Spectrozyme-tPA); assay type: biochemical; details: 140 nM PAI-1, 70 nM tPA, pH 6.6; for inhibition at 25 µM: 25 μM test compound; for inhibition at 100 µM: 100 μM test compound
T1 construct: purchased Molecular Innovations, Royal Oak, Mich
T1 sequence (P05121 24-402): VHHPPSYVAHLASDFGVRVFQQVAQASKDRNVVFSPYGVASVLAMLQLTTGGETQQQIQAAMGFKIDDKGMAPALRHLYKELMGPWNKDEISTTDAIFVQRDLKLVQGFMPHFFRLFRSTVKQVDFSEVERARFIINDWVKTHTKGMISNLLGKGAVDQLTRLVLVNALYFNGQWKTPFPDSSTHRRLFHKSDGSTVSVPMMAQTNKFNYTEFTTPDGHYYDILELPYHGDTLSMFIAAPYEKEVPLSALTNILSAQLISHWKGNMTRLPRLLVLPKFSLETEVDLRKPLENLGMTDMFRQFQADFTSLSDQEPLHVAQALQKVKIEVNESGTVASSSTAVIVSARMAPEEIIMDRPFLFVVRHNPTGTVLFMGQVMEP
Experimental: Test compounds are dissolved in DMSO at a final concentration of 10 mM, then diluted 101× in physiologic buffer. The inhibitory assay is initiated by the addition of the test compound (1-100 μM final concentration, maximum DMSO concentration of 0.2%) in a pH 6.6 buffer containing 140 nM recombinant human plasminogen activator inhibitor-1 (PAI-1; Molecular Innovations, Royal Oak, Mich.). Following a 1 hour incubation at room temperature, 70 nM of recombinant human tissue plasminogen activator (tPA) is added, and the combination of the test compound, PAI-1 and tPA is incubated for an additional 30 minutes. Following the second incubation, Spectrozyme-tPA (American Diagnostica, Greenwich, Conn.), a chromogenic substrate for tPA, is added and absorbance read at 405 nm at 0 and 60 minutes. Relative PAI-1 inhibition is equal to the residual tPA activity in the presence of the test compound and PAI-1. Control treatments include the complete inhibition of tPA by PAI-1 at the molar ratio employed (2:1), and the absence of any effect of the test compound on tPA alone.

[2] = biological target: human PAI-1 (Homo sapiens, UniProt P05121); assay: Antibody Assay for Determining IC50 of Inhibition of PAI-1 (active PAI-1 bound to tPA-coated plate, 33B8 antibody); assay type: binding; details: test compound incubated with human PAI-1 50 ng/ml, pH 7.5
human PAI-1, sequence (P05121 24-402): as above
Experimental: This assay is based upon the non-SDS dissociable interaction between tPA and active PAI-1. Assay plates are initially coated with human tPA (10 μg/ml). Test compounds of the present invention are dissolved in DMSO at 10 mM, then diluted with physiologic buffer (pH 7.5) to a final concentration of 1-50 μM. Test compounds are incubated with human PAI-1 (50 ng/ml) for 15 minutes at room temperature. The tPA-coated plate is washed with a solution of 0.05% Tween 20 and 0. 1% BSA, then the plate is blocked with a solution of 3% BSA. An aliquot of the substituted biphenyloxy acid/PAI-1 solution is then added to the tPA-coated plate, incubated at room temperature for 1 hour, and washed. Active PAI-1 bound to the plate is assessed by adding an aliquot of a 1:1000 dilution of the 33B8 monoclonal antibody against human PAI-1, and incubating the plate at room temperature for 1 hour (Molecular Innovations, Royal Oak, Mich.). The plate is again washed, and a solution of goat anti-mouse IgG-alkaline phosphatase conjugate is added at a 1:50,000 dilution in goat serum. The plate is incubated 30 minutes at room temperature, washed, and a solution of alkaline phosphatase substrate is added. The plate is incubated 45 minutes at room temperature, and color development is determined at OD405nm. The quantitation of active PAI-1 bound to tPA at varying concentrations of the test compound is used-to determine the IC50. Results are analyzed using a logarithmic best-fit equation. The assay sensitivity is 5 ng/ml of human PAI-1 as determined from a standard curve ranging from 0-100 ng/ml.

Compound	inhibition at 25 µM [1] [%]	inhibition at 100 µM [1] [%]	IC50 [2] [µM]	melting point [°C]
CCCc1c(C(=O)NCc2ccc(-c3ccc(OCC(=O)O)c(Br)c3)cc2)cnn1-c1ccccc1 [Compound 3, {[3-bromo-4′-({[(1-phenyl-5-propyl-1H-pyrazol-4-yl)carbonyl]amino}methyl)[1,1′-biphenyl]-4-yl]oxy}acetic acid]	47	88	37.5	204 to 206
CN(Cc1ccc(-c2ccc(OCc3nnn[nH]3)c(Br)c2)cc1)C(=O)c1cn(Cc2ccccc2)c2ccccc12 [Compound 10, 1-Benzyl-N-{[3′-bromo-4′-(1H-tetraazol-5-ylmethoxy)-1,1′-biphenyl-4-yl]methyl}-N-methyl-1H-indole-3-carboxamide]	45	76	30	–
CN(Cc1ccc(-c2ccc(OCc3nnn[nH]3)c(Br)c2)cc1)C(=O)c1cn(C)c2ccccc12 [Compound 9, N-{[3′-bromo-4′-(1H-tetraazol-5-ylmethoxy)-1,1′-biphenyl-4-yl]methyl}-N,1-dimethyl-1H-indole-3-carboxamide]	41	81	46.3	239

Stronger by IC50 [2], values ahead:

inhibition at 25 µM [1] [%]	inhibition at 100 µM [1] [%]	IC50 [2] [µM]	melting point [°C]	Compound
55	96	20	79 to 86	CCCCc1oc2ccccc2c1C(=O)N(C)Cc1ccc(-c2ccc(OC(Cc3ccccc3)C(=O)O)c(Br)c2)cc1 (stereo not shown) [Compound 8, 2-[(3-bromo-4′-{[[(2-butyl-1-benzofuran-3-yl)carbonyl](methyl)amino]methyl}-1,1′-biphenyl-4-yl)oxy]-3-phenylpropanoic acid]
42	94	10.8	–	CCCCc1oc2ccccc2c1C(=O)N(C)Cc1ccc(-c2ccc(OCc3nnn[nH]3)c(Br)c2)cc1 [Compound 6, N-{[3′-bromo-4′-(1H-tetraazol-5-ylmethoxy)-1,1′-biphenyl-4-yl]methyl}-2-butyl-N-methyl-1-benzofuran-3-carboxamide]
64	100	18.7	72 to 78	CCCCc1oc2ccccc2c1C(=O)N(C)Cc1ccc(-c2ccc(OCC(=O)O)c(Br)c2)cc1 [Compound 7, [(3-bromo-4′-{[[(2-butyl-1-benzofuran-3-yl)carbonyl](methyl)amino]methyl}-1,1′-biphenyl-4-yl)oxy]acetic acid]
